According to patent publication US4703107A, “Water-soluble acylated derivatives of peptides or amino acids, their preparation and their use” (priority 1983, dated 1987):
Values after ≈ are worked out from the molar mass of the structure shown. Counter-ions that a name gives are not always drawn. Like-named read-outs stand apart in the source and are kept apart here. Where a SMILES comes first, the peptide text is derived from it. The star is where a group is joined. Doxorubicin(3'-N) = COc1cccc2c1C(=O)c1c(O)c3c(c(O)c1C2=O)C[C@@](O)(C(=O)CO)C[C@@H]3O[C@H]1C[C@H](N*)[C@H](O)[C@H](C)O1; dGluconoyl = O=C([C@H](O)[C@@H](O)[C@H](O)[C@H](O)CO)*; NH(9-Et-carbazol-3-yl) = CCn1c2ccccc2c2cc(N*)ccc21; AMC = Cc1cc(=O)oc2cc(N*)ccc12

Tests used:
mice = assay: Toxicity of prodrugs on mice; type: in vivo; conditions: for Number of surviving mice at day 8 / Number of surviving mice at day 30 / Weight variation at day 8: two intravenous injections at days 0 and 2, mg/kg/injection: ADR 19,7, GlcA-Gly-Pro-Lys-ADR 35,1, GlcA-Ile-Phe-Lys-ADR 37,0; for Apparent lesions: two intravenous injections at days 0 and 2, footnotes to day 30 column
Text: GlcA-Gly-Pro-Lys-Adriamycin and GlcA-Ile-Phe-Lys-Adriamycin was studied on mice after two intravenous injections at days 0 and 2.

[1] = Solubility in distilled water / aqueous solution; type: physicochemical; conditions: for solubility in distilled water: at 20° C.
Description: The solubility of the PHA-L-Ala-L-Ala-L-Pro-L-Ala-AEC is greater than 80 mg/ml in distilled water or a buffer with a pH between 3 and 9.
The solubility of this compound in distilled water is 2.0 mM/l at 20° C.
The influence of the length of the N-acylating polyhydroxyalcanoyl group on the water solubility of fluorogenic substrates is shown in Table III in the case of a chymotrypsin specific substrate PHA-L-Ala-L-Ala-L-Phe-7-amido-4-methylcoumarin.

[2] = pH 8.1, aqueous buffer
[3] = Table IV; same values as Table I
[4] = tested on: leucemic cells L1210, Lewis lung carcinoma "3LL"; assay: Penetration into and death of tumor cells; type: cell-based
[5] = Table III, water solubility, 20° C., read-out: SOLUBILITY (mM AT 20° C.)

Compound | solubility [2] [mM] | solubility [3] [mM] | further results
COc1cccc2c1C(=O)c1c(O)c3c(c(O)c1C2=O)C[C@@](O)(C(=O)CO)C[C@@H]3O[C@H]1C[C@H](N)[C@H](O)[C@H](C)O1 [ADR, Adriamycin, reference compound] |  |  | Number of surviving mice at day 8 (mice): 0/8; Number of surviving mice at day 30 (mice): 0/8; Weight variation at day 8 (mice): -17,8%
CC(=O)N[C@@H](C)C(=O)N[C@@H](C)C(=O)N[C@@H](Cc1ccccc1)C(=O)Nc1ccc2c(C)cc(=O)oc2c1 [AcAlaAlaPheAMC, reference compound] (Ac-Ala-Ala-Phe-{AMC}) |  |  | solubility [1, 5]: 0.2 mM
CC[C@H](C)[C@H](NC(=O)OC(C)(C)C)C(=O)N[C@@H](Cc1ccccc1)C(=O)N[C@@H](CCCCN)C(=O)Nc1ccc2c(c1)c1ccccc1n2CC [Boc--Ile--Phe--Lys--AEC, reference compound] | 0.04 (≈ 0.028 mg/mL) |  | 
CCn1c2ccccc2c2cc(NC(=O)[C@H](CCCCN)NC(=O)[C@H](CC(C)C)NC(=O)[C@@H](NC(=O)OC(C)(C)C)C(C)C)ccc21 [Boc--Val--Leu--Lys--AEC, reference compound] | 2.5 (≈ 1.63 mg/mL) |  | 
CC[C@H](C)[C@H](NC(=O)CNC(=O)[C@H](O)[C@@H](O)[C@H](O)[C@H](O)CO)C(=O)N[C@@H](Cc1ccccc1)C(=O)N[C@@H](CCCCN)C(=O)Nc1ccc2c(c1)c1ccccc1n2CC [GlcA--Gly--Ile--Phe--Lys--AEC] (dGluconoyl-GIFK-{NH(9-Et-carbazol-3-yl)}) | 2.5 (≈ 2.08 mg/mL) |  | 
COc1cccc2c1C(=O)c1c(O)c3c(c(O)c1C2=O)C[C@@](O)(C(=O)CO)C[C@@H]3O[C@H]1C[C@H](NC(=O)[C@H](CCCCN)NC(=O)[C@@H]2CCCN2C(=O)CNC(=O)[C@H](O)[C@@H](O)[C@H](O)[C@H](O)CO)[C@H](O)[C@H](C)O1 [GlcA--Gly--Pro--Lys--ADR, PHA-Gly-L-Pro-L-Lys-Adriamycin] |  |  | Apparent lesions (mice): No apparent lesion; Number of surviving mice at day 8 (mice): 8/8; Number of surviving mice at day 30 (mice): 8/8; Weight variation at day 8 (mice): +15,2%
CCn1c2ccccc2c2cc(NC(=O)[C@H](CCCCN)NC(=O)[C@@H]3CCCN3C(=O)CNC(=O)[C@H](O)[C@@H](O)[C@H](O)[C@H](O)CO)ccc21 [GlcA--Gly--Pro--Lys--AEC] | 380 (≈ 255 mg/mL) | 380 (≈ 255 mg/mL) | 
CCn1c2ccccc2c2cc(NC(=O)[C@H](CCCNC(=N)N)NC(=O)[C@H](Cc3ccccc3)NC(=O)[C@@H](NC(=O)CNC(=O)[C@H](O)[C@@H](O)[C@H](O)[C@H](O)CO)C(C)C)ccc21 [GlcA--Gly--Val--Phe--Arg--AEC] (dGluconoyl-GVFR-{NH(9-Et-carbazol-3-yl)}) | 3.6 (≈ 3.05 mg/mL) | 3.6 (≈ 3.05 mg/mL) | 
CCn1c2ccccc2c2cc(NC(=O)[C@H](CCCCN)NC(=O)[C@H](Cc3ccccc3)NC(=O)[C@@H](NC(=O)CNC(=O)[C@H](O)[C@@H](O)[C@H](O)[C@H](O)CO)C(C)C)ccc21 [GlcA--Gly--Val--Phe--Lys--AEC] (dGluconoyl-GVFK-{NH(9-Et-carbazol-3-yl)}) | 4.2 (≈ 3.44 mg/mL) | 4.2 (≈ 3.44 mg/mL) | 
CC[C@H](C)[C@H](NC(=O)[C@H](O)[C@@H](O)[C@H](O)[C@H](O)CO)C(=O)N[C@@H](CC(C)C)C(=O)N[C@@H](CCCNC(=N)N)C(=O)Nc1ccc2c(c1)c1ccccc1n2CC [GlcA--Ile--Leu--Arg--AEC] | 143 (≈ 110 mg/mL) | 143 (≈ 110 mg/mL) | 
CC[C@H](C)[C@H](NC(=O)[C@H](O)[C@@H](O)[C@H](O)[C@H](O)CO)C(=O)N[C@@H](CC(C)C)C(=O)N[C@@H](CCCCN)C(=O)Nc1ccc2c(c1)c1ccccc1n2CC [GlcA--Ile--Leu--Lys--AEC] | 94 (≈ 69.8 mg/mL) | 94 (≈ 69.8 mg/mL) | 
CC[C@H](C)[C@H](NC(=O)[C@H](O)[C@@H](O)[C@H](O)[C@H](O)CO)C(=O)N[C@@H](Cc1ccccc1)C(=O)N[C@@H](CCCNC(=N)N)C(=O)Nc1ccc2c(c1)c1ccccc1n2CC [GlcA--Ile--Phe--Arg--AEC] | 1.1 (≈ 0.885 mg/mL) |  | 
CC[C@H](C)[C@H](NC(=O)[C@H](O)[C@@H](O)[C@H](O)[C@H](O)CO)C(=O)N[C@@H](Cc1ccccc1)C(=O)N[C@@H](CCCCN)C(=O)N[C@H]1C[C@H](O[C@H]2C[C@](O)(C(=O)CO)Cc3c(O)c4c(c(O)c32)C(=O)c2c(OC)cccc2C4=O)O[C@@H](C)[C@H]1O [GlcA--Ile--Phe--Lys--ADR, Glc A-L-Ile-L-Phe-L-Lys-Adriamycin] |  |  | Apparent lesions (mice): No apparent lesion; Number of surviving mice at day 8 (mice): 8/8; Number of surviving mice at day 30 (mice): 8/8; Weight variation at day 8 (mice): +14,7%
CC[C@H](C)[C@H](NC(=O)[C@H](O)[C@@H](O)[C@H](O)[C@H](O)CO)C(=O)N[C@@H](Cc1ccccc1)C(=O)N[C@@H](CCCCN)C(=O)Nc1ccc2c(c1)c1ccccc1n2CC [GlcA--Ile--Phe--Lys--AEC, Glc A-Ile-Phe-Lys-AEC, HCl] | 0.54 |  | 
CCn1c2ccccc2c2cc(NC(=O)[C@H](CCCCN)NC(=O)CNC(=O)[C@H](CO)NC(=O)[C@H](O)[C@@H](O)[C@H](O)[C@H](O)CO)ccc21 [GlcA--Ser--Gly--Lys--AEC] | 54 (≈ 35.7 mg/mL) |  | 
CCn1c2ccccc2c2cc(NC(=O)[C@H](CCCNC(=N)N)NC(=O)[C@H](CC(C)C)NC(=O)[C@@H](NC(=O)[C@H](O)[C@@H](O)[C@H](O)[C@H](O)CO)C(C)C)ccc21 [GlcA--Val--Leu--Arg--AEC] | 227 (≈ 172 mg/mL) | 227 (≈ 172 mg/mL) | 
CCn1c2ccccc2c2cc(NC(=O)[C@H](CCCNC(=N)N)NC(=O)CNC(=O)[C@H](CC(C)C)NC(=O)[C@@H](NC(=O)[C@H](O)[C@@H](O)[C@H](O)[C@H](O)CO)C(C)C)ccc21 [GlcA--Val--Leu--Gly--Arg--AEC] (dGluconoyl-VLGR-{NH(9-Et-carbazol-3-yl)}) | 67 (≈ 54.5 mg/mL) | 67 (≈ 54.5 mg/mL) | 
CCn1c2ccccc2c2cc(NC(=O)[C@H](CCCCN)NC(=O)CNC(=O)[C@H](CC(C)C)NC(=O)[C@@H](NC(=O)[C@H](O)[C@@H](O)[C@H](O)[C@H](O)CO)C(C)C)ccc21 [GlcA--Val--Leu--Gly--Lys--AEC] (dGluconoyl-VLGK-{NH(9-Et-carbazol-3-yl)}) | 62 (≈ 48.7 mg/mL) |  | 
CCn1c2ccccc2c2cc(NC(=O)[C@H](CCCCN)NC(=O)[C@H](CC(C)C)NC(=O)[C@@H](NC(=O)[C@H](O)[C@@H](O)[C@H](O)[C@H](O)CO)C(C)C)ccc21 [GlcA--Val--Leu--Lys--AEC] | 250 (≈ 182 mg/mL) | 250 (≈ 182 mg/mL) | 
CCn1c2ccccc2c2cc(NC(=O)[C@H](CCCNC(=N)N)NC(=O)[C@H](Cc3ccccc3)NC(=O)[C@@H](NC(=O)[C@H](O)[C@@H](O)[C@H](O)[C@H](O)CO)C(C)C)ccc21 [GlcA--Val--Phe--Arg--AEC] | 100 (≈ 79.1 mg/mL) | 100 (≈ 79.1 mg/mL) | 
CCn1c2ccccc2c2cc(NC(=O)[C@H](CCCCN)NC(=O)[C@H](Cc3ccccc3)NC(=O)[C@@H](NC(=O)[C@H](O)[C@@H](O)[C@H](O)[C@H](O)CO)C(C)C)ccc21 [GlcA--Val--Phe--Lys--AEC] | 165 (≈ 126 mg/mL) | 165 (≈ 126 mg/mL) | 
COc1cccc2c1C(=O)c1c(O)c3c(c(O)c1C2=O)C[C@@](O)(C(=O)CO)C[C@@H]3O[C@H]1C[C@H](NC(=O)[C@@H](N)CC(C)C)[C@H](O)[C@H](C)O1 [L-Leu-Adriamycine, L-Leu-Adriamycin] |  |  | penetration into tumor cells ([4]; leucemic cells L1210, Lewis lung carcinoma 3LL): penetrates the tumor cells; death of tumor cells ([4]; tumor cells): causes the death of these cells
CCn1c2ccccc2c2cc(NC(=O)[C@H](C)NC(=O)[C@@H]3CCCN3C(=O)[C@H](C)NC(=O)[C@H](C)NC(=O)[C@H](O)[C@@H](O)[C@H](O)[C@H](O)CO)ccc21 [PHA-L-Ala-L-Ala-L-Pro-L-Ala-AEC] (dGluconoyl-AAPA-{NH(9-Et-carbazol-3-yl)}) |  |  | solubility ([1]; aqueous with cosolvent or surfactant or cyclodextrin, in distilled water or a buffer with a pH between 3 and 9, read-out: solubility): > 80 mg/mL
COc1cccc2c1C(=O)c1c(O)c3c(c(O)c1C2=O)C[C@@](O)(C(=O)CO)C[C@@H]3O[C@H]1C[C@H](NC(=O)[C@H](CC(C)C)NC(=O)[C@H](CCCNC(=N)N)NC(=O)[C@@H]2CCCN2C(=O)[C@H](Cc2ccccc2)NC(=O)[C@H](O)[C@@H](O)[C@H](O)[C@H](O)CO)[C@H](O)[C@H](C)O1 [PHA-L-Phe-L-Pro-L-Arg-L-Leu-Adriamycin] (dGluconoyl-FPRL-{Doxorubicin(3'-N)}) |  |  | solubility in water ([1]; water): soluble in water
CCn1c2ccccc2c2cc(NC(=O)[C@H](CCCCN)NC(=O)[C@@H]3CCCN3C(=O)CNC(=O)OCc3ccccc3)ccc21 [Z--Gly--Pro--Lys--AEC, reference compound] | 0.2 (≈ 0.125 mg/mL) |  | 
CC[C@H](C)[C@H](NC(=O)OCc1ccccc1)C(=O)N[C@@H](Cc1ccccc1)C(=O)N[C@@H](CCCCN)C(=O)Nc1ccc2c(c1)c1ccccc1n2CC [Z--Ile--Phe--Lys--AEC, reference compound] | 0.03 (≈ 0.022 mg/mL) |  | 
Cc1cc(=O)oc2cc(NC(=O)[C@H](Cc3ccccc3)NC(=O)[C@H](C)NC(=O)[C@H](C)NC(=O)[C@H](O)[C@@H](O)[C@H](O)[C@H](O)CO)ccc12 [gluconoyl-L-Ala-L-Ala-L-Phe-AMC] |  |  | solubility [1, 5]: 2.4 mM; solubility in distilled water [1]: 2.4 mM/l
Cc1cc(=O)oc2cc(NC(=O)[C@H](Cc3ccccc3)NC(=O)[C@H](C)NC(=O)[C@H](C)NC(=O)C(O)C(O)C(O)C(O)C(O)C(O)CO)ccc12 (stereo partly drawn) [glucooctanoyl-L-Ala-L-Ala-L-Phe-AMC] |  |  | solubility [1, 5]: 3.2 mM; solubility in distilled water [1]: 3.2 mM/l
Cc1cc(=O)oc2cc(NC(=O)[C@H](Cc3ccccc3)NC(=O)[C@H](C)NC(=O)[C@H](C)NC(=O)[C@H](O)[C@H](O)[C@H](O)CO)ccc12 [ribonoyl-L-Ala-L-Ala-L-Phe-AMC] |  |  | solubility [1, 5]: 2 mM; solubility in distilled water [1]: 2.0 mM/l
